≈ marks a conversion by molar mass, not a printed value. Like-named read-outs stand apart in the source and are kept apart here.
Key:
human (hACC2) = human (hACC2) (Homo sapiens, UniProt O00763); experiment: In vitro ACC inhibition assay (ADP-Glo), hACC2; type: biochemical; settings: 5 nM ACC2, 20 μM ATP, 20 μM acetyl-CoA
Protocol: The detailed procedure is as follows. […] 10 μL ADP glo reagent was added. […] 20 μL kinase detection reagent was added.

C. albicans = experiment: Antifungal Activity Assay (broth microtiter MIC), C. albicans; type: cell-based, Candida albicans; settings: Candida albicans, ATCC90028, 48 h
Summary of the method: (§1)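 Endpoint: lowest concentration visibly inhibiting growth relative to control after 48 h. Inoculum of 2.5×10^3 CFU/mL final in RPMI 1640+MOPS, prepared from overnight 35° C agar cultures; test compounds diluted in water to 128 μg/mL before plating.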

C. krusei = experiment: Antifungal Activity Assay (broth microtiter MIC), C. krusei; type: cell-based, Candida krusei; settings: Pichia kudriavzevii, ATCC6258, 48 h
Summary of the method: as §1

C. parapsilosis = experiment: Antifungal Activity Assay (broth microtiter MIC), C. parapsilosis; type: cell-based, Candida parapsilosis; settings: Lodderomyces parapsilosis, ATCC22019, 48 h
Summary of the method: as §1

Botrtyis cinerea (Bc) = experiment: Growth inhibition assay of fungal pathogens, Bc; type: cell-based; settings: 48 h, growth inhibition at 48 hours vs 2% DMSO control
Summary of the method: (§2)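 Spores diluted in 17% V8 liquid media and incubated with compound at final 50, 10, 2 ppm or 2, 0.4, 0.08 ppm (2% DMSO). OD600 plus visual ratings at 24 and 48 hours, blank-subtracted; percent growth inhibition from 48 h readings relative to 2% DMSO control.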

[1] = tested on: Collectotrichum graminicola (Cg); experiment: Growth inhibition assay of fungal pathogens, Cg; type: cell-based; settings: 48 h, growth inhibition at 48 hours vs 2% DMSO control
Summary of the method: as §2

Diplodia maydis (Dm) = experiment: Growth inhibition assay of fungal pathogens, Dm; type: cell-based; settings: Stenocarpella maydis, 48 h, growth inhibition at 48 hours vs 2% DMSO control
Summary of the method: as §2

[2] = tested on: Fusarium moniliforme (Fm); experiment: Growth inhibition assay of fungal pathogens, Fm; type: cell-based; settings: Fusarium verticillioides, 48 h, read-out: Concentration at 90% Inhibition Fm
Summary of the method: as §2

[3] = tested on: Fusarium virguliforme (Fv); experiment: Growth inhibition assay of fungal pathogens, Fv; type: cell-based; settings: 48 h
Summary of the method: as §2

[4] = tested on: Phytophthora capsici (Pc); experiment: Growth inhibition assay of fungal pathogens, Pc; type: cell-based; settings: 48 h
Summary of the method: as §2

Rhizoctonia solani (Rs) = experiment: Growth inhibition assay of fungal pathogens, Rs; type: cell-based; settings: 48 h
Septoria tritici (St) = experiment: Growth inhibition assay of fungal pathogens, St; type: cell-based; settings: Zymoseptoria tritici, 48 h, growth inhibition at 48 hours vs 2% DMSO control
Summary of the method: as §2

fungal (fACC2) = fungal (fACC2) (UniProt Q00955); settings: read-out: fACC2 (in vitro ACC2 Inhibition Assay, IC50), ADP-Glo, 5 nM ACC2, 20 μM ATP, 20 μM acetyl-CoA
[5] = Table 3b (additional results), ATCC 90028, 3 replicates, MIC recorded at 48 h, read-out: MIC, C. albicans ATCC 90028
[6] = Table 3b (additional results), ATCC 6258, 3 replicates, MIC recorded at 48 h, read-out: MIC, C. krusei ATCC 6258
[7] = Table 3b (additional results), ATCC 22019, 3 replicates, MIC recorded at 48 h, read-out: MIC, C. parapsilosis ATCC 22019
[8] = Botrtyis cinerea, read-out: Concentration at 90% Inhibition Bc
[9] = Collectotrichum graminicola, read-out: Concentration at 90% Inhibition Cg
[10] = Diplodia maydis, read-out: Concentration at 90% Inhibition Dm
[11] = Fusarium moniliforme, growth inhibition at 48 hours vs 2% DMSO control
[12] = growth inhibition at 48 hours vs 2% DMSO control, read-out: Concentration at 90% Inhibition Fv
[13] = growth inhibition at 48 hours vs 2% DMSO control, read-out: Concentration at 90% Inhibition Pc
[14] = mycelial plugs, growth inhibition at 48 hours vs 2% DMSO control, read-out: Concentration at 90% Inhibition Rs
[15] = Septoria tritici, read-out: Concentration at 90% Inhibition St
[16] = read-out: MIC, C. albicans ATCC 90028, Table 3b (additional results), 3 replicates, MIC recorded at 48 h
[17] = read-out: MIC, C. krusei ATCC 6258, Table 3b (additional results), 3 replicates, MIC recorded at 48 h
[18] = read-out: MIC, C. parapsilosis ATCC 22019, Table 3b (additional results), 3 replicates, MIC recorded at 48 h
[19] = read-out: Concentration at 90% Inhibition Bc, Botrtyis cinerea
[20] = read-out: Concentration at 90% Inhibition Cg, Collectotrichum graminicola
[21] = read-out: Concentration at 90% Inhibition Dm, Diplodia maydis
[22] = read-out: Concentration at 90% Inhibition Fv, Fusarium virguliforme, growth inhibition at 48 hours vs 2% DMSO control
[23] = read-out: Concentration at 90% Inhibition Pc, Phytophthora capsici, growth inhibition at 48 hours vs 2% DMSO control
[24] = read-out: Concentration at 90% Inhibition Rs, Rhizoctonia solani, mycelial plugs, growth inhibition at 48 hours vs 2% DMSO control
[25] = read-out: Concentration at 90% Inhibition St, Septoria tritici

human (hACC2), sequence (O00763 whole entry): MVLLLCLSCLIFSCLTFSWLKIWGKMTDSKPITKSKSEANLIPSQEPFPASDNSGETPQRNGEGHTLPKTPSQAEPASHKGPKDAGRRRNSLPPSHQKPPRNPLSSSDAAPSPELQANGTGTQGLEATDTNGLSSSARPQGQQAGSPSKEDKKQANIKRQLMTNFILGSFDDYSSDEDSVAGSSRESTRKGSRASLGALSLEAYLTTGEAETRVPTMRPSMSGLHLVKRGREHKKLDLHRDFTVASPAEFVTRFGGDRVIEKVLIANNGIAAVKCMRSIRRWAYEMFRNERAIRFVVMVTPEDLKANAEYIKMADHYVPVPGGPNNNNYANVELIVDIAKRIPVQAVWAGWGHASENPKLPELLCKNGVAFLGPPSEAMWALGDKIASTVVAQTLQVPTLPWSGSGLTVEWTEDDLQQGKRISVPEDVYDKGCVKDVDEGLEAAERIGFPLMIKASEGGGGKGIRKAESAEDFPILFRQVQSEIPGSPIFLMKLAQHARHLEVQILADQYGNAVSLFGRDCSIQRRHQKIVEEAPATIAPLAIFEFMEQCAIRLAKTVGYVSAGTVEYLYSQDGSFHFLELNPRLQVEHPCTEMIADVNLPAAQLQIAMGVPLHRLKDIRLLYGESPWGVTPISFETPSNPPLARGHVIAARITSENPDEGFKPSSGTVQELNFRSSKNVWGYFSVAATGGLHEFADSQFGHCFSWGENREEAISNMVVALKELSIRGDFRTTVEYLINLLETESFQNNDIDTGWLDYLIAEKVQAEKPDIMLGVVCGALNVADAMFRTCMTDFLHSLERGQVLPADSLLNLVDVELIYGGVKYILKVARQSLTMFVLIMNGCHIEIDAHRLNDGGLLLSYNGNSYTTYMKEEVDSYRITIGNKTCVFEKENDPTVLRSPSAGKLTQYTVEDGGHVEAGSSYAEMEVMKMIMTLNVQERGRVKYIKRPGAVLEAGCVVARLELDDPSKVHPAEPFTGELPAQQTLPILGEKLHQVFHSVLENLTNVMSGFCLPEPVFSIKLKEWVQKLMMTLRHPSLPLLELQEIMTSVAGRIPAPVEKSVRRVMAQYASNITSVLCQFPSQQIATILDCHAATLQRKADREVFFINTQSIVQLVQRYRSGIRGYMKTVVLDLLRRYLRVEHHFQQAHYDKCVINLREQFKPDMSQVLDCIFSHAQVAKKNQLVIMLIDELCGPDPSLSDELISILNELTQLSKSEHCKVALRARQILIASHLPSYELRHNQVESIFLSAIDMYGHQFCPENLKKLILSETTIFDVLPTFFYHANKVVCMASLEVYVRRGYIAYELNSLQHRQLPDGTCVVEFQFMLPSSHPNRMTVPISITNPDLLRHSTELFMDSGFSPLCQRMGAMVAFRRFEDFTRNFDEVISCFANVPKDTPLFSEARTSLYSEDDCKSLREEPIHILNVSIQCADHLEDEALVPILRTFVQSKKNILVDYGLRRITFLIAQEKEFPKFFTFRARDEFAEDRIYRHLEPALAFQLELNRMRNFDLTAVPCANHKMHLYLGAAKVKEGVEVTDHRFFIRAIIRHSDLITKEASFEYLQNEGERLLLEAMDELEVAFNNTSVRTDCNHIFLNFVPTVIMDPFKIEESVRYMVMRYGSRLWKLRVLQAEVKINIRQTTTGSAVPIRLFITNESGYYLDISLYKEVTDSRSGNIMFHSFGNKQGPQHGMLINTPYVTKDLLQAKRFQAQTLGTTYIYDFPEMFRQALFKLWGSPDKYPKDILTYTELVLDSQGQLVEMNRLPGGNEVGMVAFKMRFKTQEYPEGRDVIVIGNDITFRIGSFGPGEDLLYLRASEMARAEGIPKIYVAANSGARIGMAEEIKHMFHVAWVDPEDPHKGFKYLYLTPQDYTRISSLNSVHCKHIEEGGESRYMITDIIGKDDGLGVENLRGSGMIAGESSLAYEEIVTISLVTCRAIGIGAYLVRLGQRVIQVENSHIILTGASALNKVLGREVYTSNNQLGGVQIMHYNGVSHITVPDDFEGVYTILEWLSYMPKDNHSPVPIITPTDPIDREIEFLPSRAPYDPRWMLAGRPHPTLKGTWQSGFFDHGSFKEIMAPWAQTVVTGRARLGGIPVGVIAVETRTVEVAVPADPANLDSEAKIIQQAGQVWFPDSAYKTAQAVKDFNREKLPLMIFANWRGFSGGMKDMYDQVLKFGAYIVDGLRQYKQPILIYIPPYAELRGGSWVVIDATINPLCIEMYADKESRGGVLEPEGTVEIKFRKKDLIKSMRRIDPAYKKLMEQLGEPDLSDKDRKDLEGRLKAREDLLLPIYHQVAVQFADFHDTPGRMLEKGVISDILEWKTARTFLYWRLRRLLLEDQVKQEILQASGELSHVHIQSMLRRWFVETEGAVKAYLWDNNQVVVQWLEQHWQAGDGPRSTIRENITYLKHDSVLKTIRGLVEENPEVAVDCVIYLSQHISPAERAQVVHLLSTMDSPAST
fungal (fACC2), sequence (Q00955 whole entry): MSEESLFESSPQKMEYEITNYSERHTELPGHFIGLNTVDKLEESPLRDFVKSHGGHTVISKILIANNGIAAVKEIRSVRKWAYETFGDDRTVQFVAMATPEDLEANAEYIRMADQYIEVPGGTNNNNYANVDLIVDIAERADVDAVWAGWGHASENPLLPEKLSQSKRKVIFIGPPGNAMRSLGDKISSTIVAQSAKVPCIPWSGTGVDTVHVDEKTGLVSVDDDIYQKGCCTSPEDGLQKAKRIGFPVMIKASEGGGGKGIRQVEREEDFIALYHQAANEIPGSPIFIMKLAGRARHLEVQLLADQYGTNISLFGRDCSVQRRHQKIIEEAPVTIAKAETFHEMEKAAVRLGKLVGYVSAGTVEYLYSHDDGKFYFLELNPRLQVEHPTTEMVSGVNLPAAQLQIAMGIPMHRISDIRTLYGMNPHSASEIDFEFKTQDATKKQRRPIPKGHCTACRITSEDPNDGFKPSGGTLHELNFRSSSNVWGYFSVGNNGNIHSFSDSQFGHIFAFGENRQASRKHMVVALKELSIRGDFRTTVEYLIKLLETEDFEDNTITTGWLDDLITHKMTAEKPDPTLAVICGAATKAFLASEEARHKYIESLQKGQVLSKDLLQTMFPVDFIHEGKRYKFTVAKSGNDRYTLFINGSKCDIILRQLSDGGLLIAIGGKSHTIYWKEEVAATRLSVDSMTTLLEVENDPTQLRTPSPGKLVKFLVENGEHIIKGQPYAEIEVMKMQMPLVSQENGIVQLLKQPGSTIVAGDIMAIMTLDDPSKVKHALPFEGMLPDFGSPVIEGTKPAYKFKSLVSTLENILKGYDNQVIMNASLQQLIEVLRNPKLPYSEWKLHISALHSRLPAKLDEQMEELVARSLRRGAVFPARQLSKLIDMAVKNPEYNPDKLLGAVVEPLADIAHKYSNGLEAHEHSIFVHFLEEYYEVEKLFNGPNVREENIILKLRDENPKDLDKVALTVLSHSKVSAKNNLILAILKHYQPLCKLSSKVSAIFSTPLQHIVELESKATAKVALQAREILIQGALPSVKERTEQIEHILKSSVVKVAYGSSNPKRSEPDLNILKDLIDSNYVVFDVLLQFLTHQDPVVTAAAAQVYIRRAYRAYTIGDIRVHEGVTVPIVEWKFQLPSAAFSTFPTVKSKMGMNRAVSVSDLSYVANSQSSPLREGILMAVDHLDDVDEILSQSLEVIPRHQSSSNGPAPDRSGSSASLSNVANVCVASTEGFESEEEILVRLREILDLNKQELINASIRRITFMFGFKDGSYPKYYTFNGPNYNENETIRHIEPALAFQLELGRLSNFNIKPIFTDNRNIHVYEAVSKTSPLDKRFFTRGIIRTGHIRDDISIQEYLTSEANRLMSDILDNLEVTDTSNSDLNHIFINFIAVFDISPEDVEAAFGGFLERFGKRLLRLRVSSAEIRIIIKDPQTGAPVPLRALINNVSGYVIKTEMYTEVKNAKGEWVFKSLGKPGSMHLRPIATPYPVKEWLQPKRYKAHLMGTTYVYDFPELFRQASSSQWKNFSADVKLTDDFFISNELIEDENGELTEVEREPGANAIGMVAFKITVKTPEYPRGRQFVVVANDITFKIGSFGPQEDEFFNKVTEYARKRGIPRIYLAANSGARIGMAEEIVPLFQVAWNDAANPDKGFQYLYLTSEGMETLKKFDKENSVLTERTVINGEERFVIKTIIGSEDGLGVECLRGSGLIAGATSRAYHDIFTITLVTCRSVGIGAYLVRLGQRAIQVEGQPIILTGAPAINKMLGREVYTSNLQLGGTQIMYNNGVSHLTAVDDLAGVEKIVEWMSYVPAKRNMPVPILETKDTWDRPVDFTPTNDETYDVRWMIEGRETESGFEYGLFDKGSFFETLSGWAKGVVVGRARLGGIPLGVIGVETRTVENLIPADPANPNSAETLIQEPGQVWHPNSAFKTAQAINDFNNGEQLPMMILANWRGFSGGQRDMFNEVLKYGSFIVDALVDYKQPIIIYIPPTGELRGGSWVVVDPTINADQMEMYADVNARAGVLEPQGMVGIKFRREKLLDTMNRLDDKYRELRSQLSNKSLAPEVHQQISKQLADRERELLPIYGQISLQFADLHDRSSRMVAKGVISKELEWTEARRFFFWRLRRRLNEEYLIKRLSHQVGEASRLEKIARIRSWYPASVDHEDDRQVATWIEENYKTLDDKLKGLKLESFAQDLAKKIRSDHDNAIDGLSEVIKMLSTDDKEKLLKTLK

## CC(=O)Oc1ccccc1[C@H](Cn1c(=O)n(C(C)(C)C(=O)NC(C)C)c(=O)c2c(C)c(-n3nccn3)sc21)OCCC#N [Compound I-272]
Human (hACC2); Table 2b, additional results
  IC50: 1 to 5 nM
C. albicans; [5]
  MIC: 1.01 to 2 µg/mL (≈ 1.66 to 3.29 µM)
C. krusei; [6]
  MIC: 1.01 to 2 µg/mL (≈ 1.66 to 3.29 µM)
C. parapsilosis; [7]
  MIC: 1.01 to 2 µg/mL (≈ 1.66 to 3.29 µM)
Botrtyis cinerea (Bc); [8]
  IC90: 2 µg/mL (≈ 3.29 µM)
[1]; [9]
  IC90: 2 µg/mL (≈ 3.29 µM)
Diplodia maydis (Dm); [10]
  IC90: 10 µg/mL (≈ 16.5 µM)
[2]; [11]
  IC90: 0.08 µg/mL (≈ 0.132 µM)
[3]; [12]
  IC90: 0.4 µg/mL (≈ 0.658 µM)
[4]; [13]
  IC90: > 50 µg/mL
Rhizoctonia solani (Rs); [14]
  IC90: 2 µg/mL (≈ 3.29 µM)
Septoria tritici (St); [15]
  IC90: > 50 µg/mL
Fungal (fACC2); Table 2b, additional results
  IC50: 0.3 to 1 nM

## Cc1c(-n2nccn2)sc2c1c(=O)n(C(C)(C)C(=O)NC(C)C)c(=O)n2CCc1cc(F)ccc1OCc1ccccc1 [Compound I-277]
Human (hACC2); Table 2b, additional results
  IC50: 10 to 40 nM
C. albicans; [16]
  MIC: 1.01 to 2 µg/mL (≈ 1.67 to 3.31 µM)
C. krusei; [17]
  MIC: 1.01 to 2 µg/mL (≈ 1.67 to 3.31 µM)
C. parapsilosis; [18]
  MIC: 1.01 to 2 µg/mL (≈ 1.67 to 3.31 µM)
Botrtyis cinerea (Bc); [19]
  IC90: > 50 µg/mL
[1]; [20]
  IC90: > 50 µg/mL
Diplodia maydis (Dm); [21]
  IC90: > 50 µg/mL
[2]
  IC90: 2 µg/mL (≈ 3.31 µM)
[3]; [22]
  IC90: 2 µg/mL (≈ 3.31 µM)
[4]; [23]
  IC90: > 50 µg/mL
Rhizoctonia solani (Rs); [24]
  IC90: > 50 µg/mL
Septoria tritici (St); [25]
  IC90: > 50 µg/mL
Fungal (fACC2); Table 2b, additional results
  IC50: 1 to 5 nM

## COc1ccc(F)cc1[C@@H](O)Cn1c(=O)n([C@H](C)C(=O)N(C)C(C)C)c(=O)c2c(C)c(-n3nccn3)sc21 [Compound I-197]
Human (hACC2); Table 2b, additional results
  IC50: 5 to 10 nM
C. albicans; [5]
  MIC: 2.01 to 4 µg/mL (≈ 3.69 to 7.34 µM)
C. krusei; [6]
  MIC: 2.01 to 4 µg/mL (≈ 3.69 to 7.34 µM)
C. parapsilosis; [7]
  MIC: 2.01 to 4 µg/mL (≈ 3.69 to 7.34 µM)
Botrtyis cinerea (Bc); [8]
  IC90: 0.4 µg/mL (≈ 0.734 µM)
[1]; [9]
  IC90: 2 µg/mL (≈ 3.67 µM)
Diplodia maydis (Dm); [10]
  IC90: 2 µg/mL (≈ 3.67 µM)
[2]; [11]
  IC90: 0.08 µg/mL (≈ 0.147 µM)
[3]; [12]
  IC90: 0.4 µg/mL (≈ 0.734 µM)
[4]; [13]
  IC90: > 50 µg/mL
Rhizoctonia solani (Rs); [14]
  IC90: 0.4 µg/mL (≈ 0.734 µM)
Septoria tritici (St); [15]
  IC90: > 50 µg/mL
Fungal (fACC2); Table 2b, additional results
  IC50: 0.3 to 1 nM

## COc1ccccc1[C@H](Cn1c(=O)n(C(C)(C)C(=O)NC(C)C)c(=O)c2c(C)c(-n3nccn3)sc21)OCCC#N [Compound I-136, 2-[1-[(2R)-2-(2-cyanoethoxy)-2-(2-methoxyphenyl)ethyl]-5-methyl-2,4-dioxo-6-(2H-1,2,3-triazol-2-yl)-1H,2H,3H,4H-thieno[2,3-d]pyrimidin-3-yl]-2-methyl-N-(propan-2-yl)propanamide]
Human (hACC2); Table 2a
  IC50: 5 to 10 nM
Human (hACC2); Table 2b, additional results
  IC50: 5 to 10 nM
C. albicans; read-out: MIC, C. albicans ATCC 90028, Table 3a, 3 replicates, MIC recorded at 48 h
  MIC: 0.25 to 1 µg/mL (≈ 0.431 to 1.73 µM)
C. albicans; [16]
  MIC: 1.01 to 2 µg/mL (≈ 1.74 to 3.45 µM)
C. krusei; read-out: MIC, C. krusei ATCC 6258, Table 3a, 3 replicates, MIC recorded at 48 h
  MIC: 0.06 to 0.24 µg/mL (≈ 0.104 to 0.414 µM)
C. krusei; [17]
  MIC: 0.25 to 1 µg/mL (≈ 0.431 to 1.73 µM)
C. parapsilosis; read-out: MIC, C. parapsilosis ATCC 22019, Table 3a, 3 replicates, MIC recorded at 48 h
  MIC: 0.25 to 1 µg/mL (≈ 0.431 to 1.73 µM)
C. parapsilosis; [18]
  MIC: 0.25 to 1 µg/mL (≈ 0.431 to 1.73 µM)
Botrtyis cinerea (Bc); [19]
  IC90: 0.08 µg/mL (≈ 0.138 µM)
[1]; [20]
  IC90: 0.08 µg/mL (≈ 0.138 µM)
Diplodia maydis (Dm); [21]
  IC90: 0.08 µg/mL (≈ 0.138 µM)
[2]
  IC90: 0.08 µg/mL (≈ 0.138 µM)
[3]; [22]
  IC90: 0.4 µg/mL (≈ 0.69 µM)
[4]; [23]
  IC90: 2 µg/mL (≈ 3.45 µM)
Rhizoctonia solani (Rs); [24]
  IC90: 0.08 µg/mL (≈ 0.138 µM)
Septoria tritici (St); [25]
  IC90: 2 µg/mL (≈ 3.45 µM)
Fungal (fACC2); Table 2a
  IC50: 1 to 5 nM
Fungal (fACC2); Table 2b, additional results
  IC50: 0.3 to 1 nM
